In ChEMBL document CHEMBL5608113, “Targeting of CAF-induced therapy resistance in CRC organoid-stroma co-cultures” (2024):

system: Colon cancer organoid; assay: Targeting of F14 CAF-induced therapy resistance in O23 CRC organoid-stroma co-culture. Cell viability is reported with SN-38.; assay type: functional, Homo sapiens; conditions: Homo sapiens, Concentration 1 uM; read-out: Cell Viability

**Q.** Which viability at 1 µM does the source give for Cc1nc(Cc2cccc(C(F)(F)F)c2)sc1-c1ccc(C(N)=O)nc1 [TP-024n] here?
**A.** 93.5%

**Q.** Which viability at 1 µM does the source give for O=C(NCc1ncc(C(F)(F)F)cc1Cl)c1ccc2c(c1)C1(CCS(=O)(=O)CC1)[C@H](C1CC1)N2S(=O)(=O)c1ccc(F)cc1 [BAY-784] here?
**A.** 127%

**Q.** How did the viability at 1 µM turn out when Cc1cc(Nc2nccc(C)n2)cc(-c2cnc([C@@]3(O)CC[C@H](C(=O)O)C(C)(C)C3)s2)c1 [MRL-SYKi] was run?
**A.** 81.4%

**Q.** How did the viability at 1 µM turn out when CNC(=O)Nc1ccc2c(c1)[C@@]1(CC2)OC(=O)N(CC(=O)N(Cc2ccc(F)cc2)[C@@H](C)C(F)(F)F)C1=O [A-486] was run?
**A.** 69.7%

**Q.** Which viability at 1 µM does the source give for CCCCN(CCCC)C(=O)CN1C[C@H](c2cc(OC)c3c(c2)OCO3)[C@@H](C(=O)O)[C@@H]1CC(C)(C)CCC here?
**A.** 115%

**Q.** How did the viability at 1 µM turn out when Cc1c[nH]c2nccc(Oc3c(F)cc(Nc4cc(Cl)nc(N)n4)cc3F)c12 [BAY-549] was run?
**A.** 74.7%

**Q.** With NC(=O)c1ccc2nc(-c3ccc(C4(N)CCC4)cc3)c(-c3ccccc3)n2n1 [BAY-1125976] as the compound, how does the viability at 1 µM read?
**A.** 47.7%

**Q.** CN1C(=O)[C@@H](N2CCc3cn(Cc4ccccc4)nc3C2=O)COc2ccccc21 [TP-030-1] was tested. Which viability at 1 µM did it give?
**A.** 66.7%

same assay, conditions: Homo sapiens, Concentration 10 uM; read-out: Cell Viability

**Q.** With CO[C@@H](C)c1c(Nc2ccc([C@H](N(C)C(=O)C3CCS(=O)(=O)CC3)C(F)(F)F)cc2)cnc2cc(Cl)nn12 [NVS-MALT1] as the compound, how does the viability at 10 µM read?
**A.** 89.1%

system: Colon cancer organoid; assay: Targeting of F14 CAF-induced therapy resistance in O23 CRC organoid-stroma co-culture. Cell viability is reported with Gefitinib.; assay type: functional, Homo sapiens; conditions: Homo sapiens, Concentration 1 uM; read-out: Cell Viability

**Q.** Which viability at 1 µM does the source give for Cc1nc(Cc2cccc(C(F)(F)F)c2)sc1-c1ccc(C(N)=O)nc1 [TP-024n] here?
**A.** 43.7%

**Q.** With O=C(NCc1ncc(C(F)(F)F)cc1Cl)c1ccc2c(c1)C1(CCS(=O)(=O)CC1)[C@H](C1CC1)N2S(=O)(=O)c1ccc(F)cc1 [BAY-784] as the compound, how does the viability at 1 µM read?
**A.** 74.1%

**Q.** With Cc1cc(Nc2nccc(C)n2)cc(-c2cnc([C@@]3(O)CC[C@H](C(=O)O)C(C)(C)C3)s2)c1 [MRL-SYKi] as the compound, how does the viability at 1 µM read?
**A.** 63.4%

**Q.** How did the viability at 1 µM turn out when CNC(=O)Nc1ccc2c(c1)[C@@]1(CC2)OC(=O)N(CC(=O)N(Cc2ccc(F)cc2)[C@@H](C)C(F)(F)F)C1=O [A-486] was run?
**A.** 47.9%

**Q.** With CCCCN(CCCC)C(=O)CN1C[C@H](c2cc(OC)c3c(c2)OCO3)[C@@H](C(=O)O)[C@@H]1CC(C)(C)CCC as the compound, how does the viability at 1 µM read?
**A.** 50%

**Q.** For Cc1c[nH]c2nccc(Oc3c(F)cc(Nc4cc(Cl)nc(N)n4)cc3F)c12 [BAY-549], which viability at 1 µM is on record?
**A.** 62.9%

**Q.** With NC(=O)c1ccc2nc(-c3ccc(C4(N)CCC4)cc3)c(-c3ccccc3)n2n1 [BAY-1125976] as the compound, how does the viability at 1 µM read?
**A.** 38%

**Q.** For CN1C(=O)[C@@H](N2CCc3cn(Cc4ccccc4)nc3C2=O)COc2ccccc21 [TP-030-1], which viability at 1 µM is on record?
**A.** 56%

same assay, conditions: Homo sapiens, Concentration 10 uM; read-out: Cell Viability

**Q.** CO[C@@H](C)c1c(Nc2ccc([C@H](N(C)C(=O)C3CCS(=O)(=O)CC3)C(F)(F)F)cc2)cnc2cc(Cl)nn12 [NVS-MALT1] was tested. Which viability at 10 µM did it give?
**A.** 60.9%

system: Colon cancer organoid; assay: Targeting of F14 CAF-induced therapy resistance in O14 CRC organoid-stroma co-culture. Cell viability is reported with Gefitinib.; assay type: functional, Homo sapiens; conditions: Homo sapiens, Concentration 1 uM; read-out: Cell Viability

**Q.** With Cc1nc(Cc2cccc(C(F)(F)F)c2)sc1-c1ccc(C(N)=O)nc1 [TP-024n] as the compound, how does the viability at 1 µM read?
**A.** 81.1%

**Q.** O=C(NCc1ncc(C(F)(F)F)cc1Cl)c1ccc2c(c1)C1(CCS(=O)(=O)CC1)[C@H](C1CC1)N2S(=O)(=O)c1ccc(F)cc1 [BAY-784] was tested. Which viability at 1 µM did it give?
**A.** 55.8%

**Q.** For Cc1cc(Nc2nccc(C)n2)cc(-c2cnc([C@@]3(O)CC[C@H](C(=O)O)C(C)(C)C3)s2)c1 [MRL-SYKi], which viability at 1 µM is on record?
**A.** 32.9%

**Q.** For CNC(=O)Nc1ccc2c(c1)[C@@]1(CC2)OC(=O)N(CC(=O)N(Cc2ccc(F)cc2)[C@@H](C)C(F)(F)F)C1=O [A-486], which viability at 1 µM is on record?
**A.** 50%

**Q.** With CCCCN(CCCC)C(=O)CN1C[C@H](c2cc(OC)c3c(c2)OCO3)[C@@H](C(=O)O)[C@@H]1CC(C)(C)CCC as the compound, how does the viability at 1 µM read?
**A.** 44.1%

**Q.** With Cc1c[nH]c2nccc(Oc3c(F)cc(Nc4cc(Cl)nc(N)n4)cc3F)c12 [BAY-549] as the compound, how does the viability at 1 µM read?
**A.** 30.6%

**Q.** NC(=O)c1ccc2nc(-c3ccc(C4(N)CCC4)cc3)c(-c3ccccc3)n2n1 [BAY-1125976] was tested. Which viability at 1 µM did it give?
**A.** 52.1%

**Q.** Which viability at 1 µM does the source give for CN1C(=O)[C@@H](N2CCc3cn(Cc4ccccc4)nc3C2=O)COc2ccccc21 [TP-030-1] here?
**A.** 40.8%

same assay, conditions: Homo sapiens, Concentration 10 uM; read-out: Cell Viability

**Q.** For CO[C@@H](C)c1c(Nc2ccc([C@H](N(C)C(=O)C3CCS(=O)(=O)CC3)C(F)(F)F)cc2)cnc2cc(Cl)nn12 [NVS-MALT1], which viability at 10 µM is on record?
**A.** 36.8%

system: Colon cancer organoid; assay: Targeting of F14 CAF-induced therapy resistance in O14 CRC organoid-stroma co-culture. Cell viability is reported without Gefitinib.; assay type: functional, Homo sapiens; conditions: Homo sapiens, Concentration 1 uM; read-out: Cell Viability

**Q.** For Cc1nc(Cc2cccc(C(F)(F)F)c2)sc1-c1ccc(C(N)=O)nc1 [TP-024n], which viability at 1 µM is on record?
**A.** 123%

**Q.** With O=C(NCc1ncc(C(F)(F)F)cc1Cl)c1ccc2c(c1)C1(CCS(=O)(=O)CC1)[C@H](C1CC1)N2S(=O)(=O)c1ccc(F)cc1 [BAY-784] as the compound, how does the viability at 1 µM read?
**A.** 129%

**Q.** For Cc1cc(Nc2nccc(C)n2)cc(-c2cnc([C@@]3(O)CC[C@H](C(=O)O)C(C)(C)C3)s2)c1 [MRL-SYKi], which viability at 1 µM is on record?
**A.** 137%

**Q.** For CNC(=O)Nc1ccc2c(c1)[C@@]1(CC2)OC(=O)N(CC(=O)N(Cc2ccc(F)cc2)[C@@H](C)C(F)(F)F)C1=O [A-486], which viability at 1 µM is on record?
**A.** 90.8%

**Q.** CCCCN(CCCC)C(=O)CN1C[C@H](c2cc(OC)c3c(c2)OCO3)[C@@H](C(=O)O)[C@@H]1CC(C)(C)CCC was tested. Which viability at 1 µM did it give?
**A.** 125%

**Q.** Cc1c[nH]c2nccc(Oc3c(F)cc(Nc4cc(Cl)nc(N)n4)cc3F)c12 [BAY-549] was tested. Which viability at 1 µM did it give?
**A.** 96.4%

**Q.** For NC(=O)c1ccc2nc(-c3ccc(C4(N)CCC4)cc3)c(-c3ccccc3)n2n1 [BAY-1125976], which viability at 1 µM is on record?
**A.** 152%

**Q.** How did the viability at 1 µM turn out when CN1C(=O)[C@@H](N2CCc3cn(Cc4ccccc4)nc3C2=O)COc2ccccc21 [TP-030-1] was run?
**A.** 125%

same assay, conditions: Homo sapiens, Concentration 10 uM; read-out: Cell Viability

**Q.** CO[C@@H](C)c1c(Nc2ccc([C@H](N(C)C(=O)C3CCS(=O)(=O)CC3)C(F)(F)F)cc2)cnc2cc(Cl)nn12 [NVS-MALT1] was tested. Which viability at 10 µM did it give?
**A.** 106%

system: Colon cancer organoid; assay: Targeting of F14 CAF-induced therapy resistance in O23 CRC organoid-stroma co-culture. Cell viability is reported without Gefitinib.; assay type: functional, Homo sapiens; conditions: Homo sapiens, Concentration 1 uM; read-out: Cell Viability

**Q.** With Cc1nc(Cc2cccc(C(F)(F)F)c2)sc1-c1ccc(C(N)=O)nc1 [TP-024n] as the compound, how does the viability at 1 µM read?
**A.** 178%

**Q.** O=C(NCc1ncc(C(F)(F)F)cc1Cl)c1ccc2c(c1)C1(CCS(=O)(=O)CC1)[C@H](C1CC1)N2S(=O)(=O)c1ccc(F)cc1 [BAY-784] was tested. Which viability at 1 µM did it give?
**A.** 157%

**Q.** For Cc1cc(Nc2nccc(C)n2)cc(-c2cnc([C@@]3(O)CC[C@H](C(=O)O)C(C)(C)C3)s2)c1 [MRL-SYKi], which viability at 1 µM is on record?
**A.** 127%

**Q.** With CNC(=O)Nc1ccc2c(c1)[C@@]1(CC2)OC(=O)N(CC(=O)N(Cc2ccc(F)cc2)[C@@H](C)C(F)(F)F)C1=O [A-486] as the compound, how does the viability at 1 µM read?
**A.** 92.2%

**Q.** How did the viability at 1 µM turn out when CCCCN(CCCC)C(=O)CN1C[C@H](c2cc(OC)c3c(c2)OCO3)[C@@H](C(=O)O)[C@@H]1CC(C)(C)CCC was run?
**A.** 145%

**Q.** For Cc1c[nH]c2nccc(Oc3c(F)cc(Nc4cc(Cl)nc(N)n4)cc3F)c12 [BAY-549], which viability at 1 µM is on record?
**A.** 124%

**Q.** How did the viability at 1 µM turn out when NC(=O)c1ccc2nc(-c3ccc(C4(N)CCC4)cc3)c(-c3ccccc3)n2n1 [BAY-1125976] was run?
**A.** 86%

**Q.** How did the viability at 1 µM turn out when CN1C(=O)[C@@H](N2CCc3cn(Cc4ccccc4)nc3C2=O)COc2ccccc21 [TP-030-1] was run?
**A.** 138%

same assay, conditions: Homo sapiens, Concentration 10 uM; read-out: Cell Viability

**Q.** How did the viability at 10 µM turn out when CO[C@@H](C)c1c(Nc2ccc([C@H](N(C)C(=O)C3CCS(=O)(=O)CC3)C(F)(F)F)cc2)cnc2cc(Cl)nn12 [NVS-MALT1] was run?
**A.** 226%
